Experimental findings from PMC2674504, “Foam nest components of the túngara frog: a cocktail of proteins conferring physical and biological resilience” (Proceedings of the Royal Society B: Biological Sciences, 2009) are described below.

Assay [1] concerns the target T1, papain (Carica papaya, UniProt P00784).
T1 construct: commercial enzyme from papaya latex (Sigma)
T1 sequence (P00784 134-345): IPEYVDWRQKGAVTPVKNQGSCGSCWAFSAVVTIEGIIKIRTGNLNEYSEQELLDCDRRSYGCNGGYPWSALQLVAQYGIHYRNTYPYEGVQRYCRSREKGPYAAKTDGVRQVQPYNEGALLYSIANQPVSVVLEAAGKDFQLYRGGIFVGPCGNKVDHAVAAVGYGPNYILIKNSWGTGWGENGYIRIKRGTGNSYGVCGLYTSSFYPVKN
Description: fluorogenic proteolysis assay (ex […] nm, em […] nm). Format: biochemical. The note with it: 0.1 M acetate pH 5.0, 10 mM dithiothreitol, 2 mM EDTA, 30 °C; mere turnover.

Assay [2] has as its target T2, Rsn-4 (Engystomops pustulosus, UniProt B5DCK4).
T2 construct: dimer or higher order
T2 sequence (B5DCK4 20-193): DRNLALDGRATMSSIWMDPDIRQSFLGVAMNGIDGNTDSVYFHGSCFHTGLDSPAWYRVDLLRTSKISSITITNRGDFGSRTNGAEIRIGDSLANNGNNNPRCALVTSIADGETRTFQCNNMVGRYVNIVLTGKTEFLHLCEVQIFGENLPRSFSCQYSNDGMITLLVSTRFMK
Description: haemagglutination inhibition (human erythrocytes). The note with it: 20 mM sugar; 10 mM HEPES, 150 mM NaCl, 2 mM CaCl2; room temperature; protein refolded in buffer with 20 mM galactose. Format: cell-based.

For assay [3], the target named is T2, Rsn-4. Description: haemagglutination inhibition (human erythrocytes); lactose-agarose affinity chromatography eluted with […] lactose. In kind it is binding. The settings on record: 20 mM sugar; 10 mM HEPES, 150 mM NaCl, 2 mM CaCl2; room temperature.

Where a SMILES comes first, the peptide text is derived from it. The star is where a group is joined. AMC = Cc1cc(=O)oc2cc(N*)ccc12; Cbz = O=C(OCc1ccccc1)*

As for `Cc1cc(=O)oc2cc(NC(=O)[C@H](CCCNC(=N)N)NC(=O)[C@H](Cc3ccccc3)NC(=O)OCc3ccccc3)ccc12` [Z-Phe-Arg 7-amido-4-methylcoumarin] (Cbz-Phe-Arg-{AMC}), the “fluorogenic proteolysis assay (ex 370 nm, em 470 nm)” value in assay [1] is reported as “papain) was investigated using fluorogenic or chromogenic substrates, Z-Phe-Arg 7-amido-4-methylcoumarin”. With `OC[C@H]1OC(O)[C@H](O)[C@@H](O)[C@H]1O` (stereo partly drawn) [galactose], the “haemagglutination inhibition (human erythrocytes)” value in assay [2] is on record as “agglutination by Rsn-4 was unaffected by fucose but completely inhibited by galactose”. Take `OC[C@H]1O[C@@H](O[C@H]2[C@H](O)[C@@H](O)C(O)O[C@@H]2CO)[C@H](O)[C@@H](O)[C@H]1O` (stereo partly drawn) [lactose]: in assay [3], the “haemagglutination inhibition (human erythrocytes); lactose-agarose affinity chro” value is “Rsn-4 could be inhibited with lactose and galactose”.
